In patent US20090062309A1, “Therapeutic compositions for the treatment of cardiovascular diseases and methods for use therefor” (priority 2007, published 2009):
“And” between values parts separate entries of the source, which are not always exact repeats. Equal values may be shown once. “Also recorded” adds a separate entry of the source.

Assays:
[1] = tested on: subjects with CHD having decreased RBC K+ content; assay: Single-Blind Trial of Amiloride in Coronary Heart Disease During 2-Year Follow-Up; format: in vivo, human
Procedure: Subjects were evaluated by clinical (CCS angina Class, dyspnea, and arrhythmia). Other non CHD causes of chest pain, dyspnea, and arrhythmia had been ruled out. Safety control were serial ECG, non-invasive hemodynamics (DynaPulse 200A, CA, USA), Ion Transport Study (plasma and RBC electrolytes, 12-hour urine volume and electrolyte excretion, and plasma and urine creatinine and osmolality), BIA for Body Composition Analysis and estimation of Total Body K^+ (Quantum X, RJL Systems), and Clinical Biochemistry (FPG, Lipids, Uric acid), were measured at 1, 3, 6, 12, 18, 24 months follow-up period.
After written consent, each patient entered this single-blind trial directed to reverse or improve angina and other symptoms of CHD, as well as the ECG alterations of ischemia, and if possible in long-term assay, on improved LV motion/contractility in the echocardiography studies.
All cases had: a) Serial ECG for LVH by Cornell or Sokolow-Lyon Criteria (QRS duration times Cornell voltage: [R aVL+ SV3, with 6 mm added in women, >2440 mm×ms], Sokolow-Lyon voltage: [SV1+RV5/V6]> 38 mm; along with LV strain pattern [classical ST-segment depressed, with inverted T-waves], or LVH voltage criteria with mild LV strain pattern (isoelectric, biphasic or non-symmetrical negative T-waves, without ST-segment depression), and ECG criteria for infarction and/or ischemia (Q-waves from previous AMI, decreased R-wave height, non-progressive R-wave voltages in precordial leads, ST-segment elevation […] often referred as injury current, ST-segment depression […] often downsloping from the J point, rectification of the ST segment, and isoelectric, biphasic, negative or inverted T-waves, intraventricular conduction disturbance, and arrhythmias); b) Non-invasive hemodynamic study (DP200M) for cardiac parameters (LV Ejection Time [LVET], LV dP/dT (LV delta pressure-time), Cardiac output and index (CO, Cl), Stroke Volume (SV), Pulse Wave Analysis (PWA) of Central Aortic Blood Pressure [BP], Aortic Systolic (SBP), Diastolic (DBP) and mean (m) BP, Aortic augmentation index; inflection point and reflected wave analysis, Systemic Vascular Resistance and Compliance (SVR/SVC), and Brachial Artery Distensibility (BAD), Brachial Artery Compliance (BAC); c) Ion Transport Studies for RBC (K^+, Na^+) plasma (K^+, Na^+, Cl^−, ICa^2+, Mg^2+), and 12-hours night urinary volume (K^+, Na^+, Cl^−, pH), d) Bio-Impedance Analysis (BIA, Quantum X, RJL Systems, MI, USA) for Total body Potassium, Total body water/Extracellular Water, Fat Mass (FM) and Fat-Free Mass (FFM) and e) Echocardiography was obtained at entry, 6 and 12, 24 months periods.
The statistical analysis was performed using the Student's t-test and analysis of variance. To reduce the probability of significant differences arising by chance, Bonferroni's correction was applied following analysis of variance. All measurement are presented as the mean±S.D., and differences were considered significant when p<0.05.

[2] = cited from earlier work

Cl.NC(N)=NC(=O)c1nc(Cl)c(N)nc1N.O.O [Amiloride, 3,5-diamino-6-chloro-N-(diaminomethylene) pyrazinecarboxamide monohydrochloride, dihydrate]
Days for Improvement, Percentage (%) ([1]; 2-year trial, n=52): 86.5% | EGG Alterations: Improved Changes, Number ([1]; 2-year trial, n=52): 23 | EGG Alterations: Improved Changes, Percentage (%) ([1]; 2-year trial, n=52): 44.2% | EGG Alterations: Reverted to Normal, Number ([1]; 2-year trial, n=52): 18 | EGG Alterations: Reverted to Normal, Percentage (%) ([1]; 2-year trial, n=52): 34.5% | EGG Alterations: Unchanged/Worst, Number ([1]; 2-year trial, n=52): 10 | EGG Alterations: Unchanged/Worst, Percentage (%) ([1]; 2-year trial, n=52): 19.2% | EGG Alterations: Weeks for Improvement ([1]; 2-year trial, n=52): 3.4 ± 1.5 Weeks | EGG Alterations: Weeks for Improvement, Percentage (%) ([1]; 2-year trial, n=52): 61% | Echocardiographic Changes: Altered Hypokinesia, Number ([1]; 2-year trial, n=52): 34 | Echocardiographic Changes: Altered Hypokinesia, Percentage (%) ([1]; 2-year trial, n=52): 65.5% | Echocardiographic Changes: Normal Contractility, Number ([1]; 2-year trial, n=52): 18 | Echocardiographic Changes: Normal Contractility, Percentage (%) ([1]; 2-year trial, n=52): 34.5% | Echocardiographic Changes: Reversed Hypokinesia, Number ([1]; 2-year trial, n=52): 27 | Echocardiographic Changes: Reversed Hypokinesia, Percentage (%) ([1]; 2-year trial, n=52): 52% | Echocardiographic Changes: Unchanged Hypokinesia, Number ([1]; 2-year trial, n=52): 7 | Echocardiographic Changes: Unchanged Hypokinesia, Percentage (%) ([1]; 2-year trial, n=52): 13.5% | Free of Angina (1-2 years), Number ([1]; 2-year trial, n=52): 37 | Free of Angina (1-2 years), Percentage (%) ([1]; 2-year trial, n=52): 71.2% | New CVD Events: ACS, Number ([1]; 2-year trial, n=52): 7 | New CVD Events: ACS, Percentage (%) ([1]; 2-year trial, n=52): 13.5% | New CVD Events: AMI/Stroke/Death, Number ([1]; 2-year trial, n=52): 0 | New CVD Events: AMI/Stroke/Death, Percentage (%) ([1]; 2-year trial, n=52): 0% | New CVD Events: None, Number ([1]; 2-year trial, n=52): 41 | New CVD Events: None, Percentage (%) ([1]; 2-year trial, n=52): 79% | New CVD Events: Ventricular Arrhythmias, Number ([1]; 2-year trial, n=52): 5 | New CVD Events: Ventricular Arrhythmias, Percentage (%) ([1]; 2-year trial, n=52): 9.6% | Reversion of Angina, Number ([1]; 2-year trial, n=52): 43 | Reversion of Angina, Percentage (%) ([1]; 2-year trial, n=52): 82.7% | Subjects with Angina: Days for Improvement ([1]; 2-year trial, n=52, Amiloride 5 to 10 mg/day): 6.2 ± 3.5 days | ECG change, single subject FIG. 14A ([1]; Diabetic, inferior AMI, during admission in the Amiloride trial): improvement in the subject's antero-lateral ischemia | ECG after withdrawal, single subject FIG. 14B ([1]; Diabetic, two months after withdrawal of Amiloride treatment): ECG alterations marked with arrows indicative of acute coronary syndrome and ventricular arrhythmias | ECG change, single subject FIG. 12B ([1]; Person, 1-year post infarction, 5 months Amiloride, calcium and statins): significant ECG improvement of ST-segment, and T-waves (V1-V6) | ECG, single subject FIG. 12C ([1]; Person, 18 months post AMI, Amiloride, calcium and statins, no other medication): essentially a normal ECG trace | Duke Treadmill Scores, single subject FIG. 12C ([1]; Person, 18 months post AMI, Amiloride, calcium and statins, monohydrochloride, dihydrate): 6.23 and 5.49 | ECG change, single subject FIG. 13B ([1]; Person, diabetes, angina, 5-months of Amiloride and statins): improvement of ischemic changes | DT Score, single subject FIG. 13B ([1]; Person, 5-months of Amiloride and statins, score −3 before): 2.3 | ECG after withdrawal, single subject FIG. 13C ([1]; Person, after 6-months without Amiloride, optimal angina and diabetes medications): recurrence of ECG alterations | ECG after re-start, single subject FIG. 13C ([1]; Person, three months after Amiloride was reinitiated): normal without ischemic changes | ECG change, single subject FIG. 11C ([1]; person, infarction, angina, heart failure, 2-months Amiloride (5 mg) and calcium plus other medications): rapid reversion of ST-T alterations (V2-V6) | angina and heart failure symptoms, single subject FIG. 11C ([1]; person, 2-months Amiloride (5 mg) and calcium, monohydrochloride, dihydrate): free of angina or symptoms of heart failure; also recorded: free of angina and symptoms of heart failure | Duke Treadmill Score, single subject FIG. 11C ([1]; person, 2-months Amiloride (5 mg) and calcium, score −3 before entering trial): +4.3 | hyperkalemia as secondary effect ([2]; as disclosed in various medical textbooks): hyperkalemia is a common secondary effect | hyperkalemia ([2]; intravenous doses of Amiloride (1 mg/Kg), subjects with chronic kidney disease, Levy Y. et al. 2008): absence of hyperkalemia | excretion ([2]; upon ingestion, humans): excreted from the kidneys unchanged
